Assay results taken from ChEMBL document CHEMBL1141017, “Triterpene based compounds with potent anti-maturation activity against HIV-1” (Bioorg Med Chem Lett, 2008).
Active and inactive are the calls of the source. The rule behind the calls is not given here.

Experiments:
[1] = tested on: Human immunodeficiency virus 1; experiment: Antiviral activity against HIV1 3B replication in human PBMC assessed as reverse transcriptase activity after 7 days; format: functional, organism-based; details: for IC50: Human immunodeficiency virus 1, 3B, 168 h
PBMC = experiment: (§1) Cytotoxicity against human PBMC by cell viability assay; format: cell-based
[2] = Cytotoxicity against human MT4 cells after 4 days by cell viability assay; format: cell-based; details: read-out: TC50
[3] = tested on: Human immunodeficiency virus 1; experiment: Antiviral activity against HIV1 NL4-3 infected in human MT4 cells assessed as cytoprotection against virus-induced cytopathic effect after 4 days by cell viability assay; format: functional, organism-based; details: Human immunodeficiency virus 1, NL4-3, MT4, 96 h
[4] = Therapeutic index, ratio of TC50 for human MT4 cells to EC50 for HIV1 NL43; format: cell-based
[5] = Therapeutic index, ratio of TC50 for human MT4 cells to IC50 for HIV1 3B; format: cell-based
[6] = Metabolic stability in human liver microsomes assessed as compound remaining after 40 mins; format: ADME, Microsome; details: read-out: Stability
[7] = Metabolic stability in Sprague-Dawley rat liver microsomes assessed as compound remaining after 40 mins; format: ADME, Microsome; details: read-out: Stability
[8] = Tmax in Sprague-Dawley rat at 5 mg/kg, po; format: ADME, organism-based; design: dose 5 mg/kg, route oral; details: in vivo
[9] = as §1; format: cell-based; details: read-out: TC50 (the source's name)
[10] = Half life in Sprague-Dawley rat at 5 mg/kg, po; format: ADME, organism-based; design: dose 5 mg/kg, route oral; details: in vivo
[11] = Cmax in Sprague-Dawley rat at 5 mg/kg, po; format: ADME, organism-based; design: dose 5 mg/kg, route oral; details: in vivo
[12] = AUC (0 to infinity) in Sprague-Dawley rat at 5 mg/kg, po; format: ADME, organism-based; design: time infinity, dose 5 mg/kg, route oral; details: plasma
[13] = Oral bioavailability in Sprague-Dawley rat at 5 mg/kg; format: ADME, organism-based; details: in vivo
[14] = Tmax in Sprague-Dawley rat at 7.5 mg/kg, po; format: ADME, organism-based; design: dose 7.5 mg/kg, route oral; details: in vivo
[15] = Tmax in Sprague-Dawley rat at 10 mg/kg, po; format: ADME, organism-based; design: dose 10 mg/kg, route oral; details: in vivo
[16] = Half life in Sprague-Dawley rat at 7.5 mg/kg, po; format: ADME, organism-based; design: dose 7.5 mg/kg, route oral; details: in vivo
[17] = Half life in Sprague-Dawley rat at 10 mg/kg, po; format: ADME, organism-based; design: dose 10 mg/kg, route oral; details: in vivo
[18] = Cmax in Sprague-Dawley rat at 7.5 mg/kg, po; format: ADME, organism-based; design: dose 7.5 mg/kg, route oral; details: in vivo
[19] = Cmax in Sprague-Dawley rat at 10 mg/kg, po; format: ADME, organism-based; design: dose 10 mg/kg, route oral; details: in vivo
[20] = AUC (0 to infinity) in Sprague-Dawley rat at 7.5 mg/kg, po; format: ADME, organism-based; design: time infinity, dose 7.5 mg/kg, route oral; details: plasma
[21] = AUC (0 to infinity) in Sprague-Dawley rat at 10 mg/kg, po; format: ADME, organism-based; design: time infinity, dose 10 mg/kg, route oral; details: plasma
[22] = Oral bioavailability in Sprague-Dawley rat at 7.5 mg/kg; format: ADME, organism-based; details: in vivo
[23] = Oral bioavailability in Sprague-Dawley rat at 10 mg/kg; format: ADME, organism-based; details: in vivo

Structure (SMILES)	CC50 at 96 h [2]	EC50 [3]	selectivity ratio [4]	selectivity ratio [5]	remaining at 40 min [6]	remaining at 40 min [7]	Tmax [8]	IC50 [1]	CC50 [9]	half-life [10]	Cmax [11]	AUC(0-inf) [12]	further results
C=C(C)[C@@H]1CC[C@]2(C(=O)NCc3ccc(OC(F)(F)F)cc3)CC[C@]3(C)[C@H](CC[C@@H]4[C@@]5(C)CC[C@H](OC(=O)CC(C)(C)C(=O)O)C(C)(C)[C@@H]5CC[C@]43C)[C@@H]12	1000 nM	190 nM	> 400	> 400	10%	10%	–	–	–	–	–	–	Activity [1]: inactive; TC50 (PBMC): Not Active
C=C(C)[C@@H]1CC[C@]2(C(=O)NCc3ccccc3C(=O)O)CC[C@]3(C)[C@H](CC[C@@H]4[C@@]5(C)CC[C@H](OC(=O)CC(C)(C)C(=O)O)C(C)(C)[C@@H]5CC[C@]43C)[C@@H]12	4500 nM	6 nM	> 400	> 400	> 60%	> 60%	3.2 h	16 nM	9700 nM	2 h	580 nM	1700 ng·h/mL	bioavailability [13]: 56.4%
C=C(C)[C@@H]1CC[C@]2(C(=O)NCc3ccccc3)CC[C@]3(C)[C@H](CC[C@@H]4[C@@]5(C)CC[C@H](OC(=O)CC(C)(C)C(=O)O)C(C)(C)[C@@H]5CC[C@]43C)[C@@H]12	> 10000 nM	23 nM	> 400	> 400	–	10%	–	11 nM	> 10000 nM	–	–	–	–
C=C(C)[C@@H]1CC[C@]2(C(=O)NCCc3ccccc3C(=O)NCCC(=O)O)CC[C@]3(C)[C@H](CC[C@@H]4[C@@]5(C)CC[C@H](OC(=O)CC(C)(C)C(=O)O)C(C)(C)[C@@H]5CC[C@]43C)[C@@H]12	9600 nM	3.1 nM	–	–	> 40%	> 40%	–	9.4 nM	11000 nM	–	–	–	Tmax [14]: 1 h; Tmax [15]: 4 h; half-life [16]: 4.54 h; half-life [17]: 7.8 h; Cmax [18]: 860 nM; Cmax [19]: 70 nM; AUC(0-inf) [20]: 1650 ng·h/mL; AUC(0-inf) [21]: 1260 ng·h/mL; bioavailability [22]: 15.5%; bioavailability [23]: 1.6%
C=C(C)[C@@H]1CC[C@]2(C(=O)NCCc3ccc(OC)cc3)CC[C@]3(C)[C@H](CC[C@@H]4[C@@]5(C)CC[C@H](OC(=O)CC(C)(C)C(=O)O)C(C)(C)[C@@H]5CC[C@]43C)[C@@H]12	> 10000 nM	12 nM	–	–	–	–	2 h	60 nM	1000 nM	4.8 h	40 nM	245 ng·h/mL	bioavailability [13]: 1.84%
C=C(C)[C@@H]1CC[C@]2(C(=O)NCc3ccc4c(c3)OCO4)CC[C@]3(C)[C@H](CC[C@@H]4[C@@]5(C)CC[C@H](OC(=O)CC(C)(C)C(=O)O)C(C)(C)[C@@H]5CC[C@]43C)[C@@H]12	> 10000 nM	23 nM	> 400	> 400	10%	10%	–	9 nM	> 10000 nM	–	–	–	–
C=C(C)[C@@H]1CC[C@]2(C(=O)NCc3ccc(OC)cc3)CC[C@]3(C)[C@H](CC[C@@H]4[C@@]5(C)CC[C@H](OC(=O)CC(C)(C)C(=O)O)C(C)(C)[C@@H]5CC[C@]43C)[C@@H]12	> 10000 nM	26 nM	> 400	> 400	10%	10%	–	23.5 nM	> 10000 nM	–	–	–	–
C=C(C)[C@@H]1CC[C@]2(C(=O)NCc3cccc(OC(F)(F)F)c3)CC[C@]3(C)[C@H](CC[C@@H]4[C@@]5(C)CC[C@H](OC(=O)CC(C)(C)C(=O)O)C(C)(C)[C@@H]5CC[C@]43C)[C@@H]12	5200 nM	110 nM	> 400	> 400	10%	10%	–	–	–	–	–	–	Activity [1]: inactive; TC50 (PBMC): Not Active
C=C(C)[C@@H]1CC[C@]2(C(=O)NCc3ccc(F)cc3C(=O)O)CC[C@]3(C)[C@H](CC[C@@H]4[C@@]5(C)CC[C@H](OC(=O)CC(C)(C)C(=O)O)C(C)(C)[C@@H]5CC[C@]43C)[C@@H]12	3200 nM	52 nM	> 400	> 400	10%	10%	–	4 nM	1500 nM	–	–	–	–
C=C(C)[C@@H]1CC[C@]2(C(=O)NCc3ccccc3OC)CC[C@]3(C)[C@H](CC[C@@H]4[C@@]5(C)CC[C@H](OC(=O)CC(C)(C)C(=O)O)C(C)(C)[C@@H]5CC[C@]43C)[C@@H]12	> 10000 nM	24 nM	> 400	> 400	10%	10%	2 h	7 nM	> 10000 nM	2 h	40 nM	114 ng·h/mL	–
C=C(C)[C@@H]1CC[C@]2(C(=O)NCc3ccc(Cl)cc3)CC[C@]3(C)[C@H](CC[C@@H]4[C@@]5(C)CC[C@H](OC(=O)CC(C)(C)C(=O)O)C(C)(C)[C@@H]5CC[C@]43C)[C@@H]12	> 10000 nM	17.9 nM	> 400	> 400	> 60%	> 60%	2 h	27 nM	> 10000 nM	8 h	270 nM	1340 ng·h/mL	bioavailability [13]: 3.91%
C=C(C)[C@@H]1CC[C@]2(C(=O)NCc3ccc4cccc(O)c4n3)CC[C@]3(C)[C@H](CC[C@@H]4[C@@]5(C)CC[C@H](OC(=O)CC(C)(C)C(=O)O)C(C)(C)[C@@H]5CC[C@]43C)[C@@H]12	> 10000 nM	3 nM	–	–	> 40%	> 40%	–	4 nM	> 10000 nM	–	–	–	–
C=C(C)[C@@H]1CC[C@]2(C(=O)NCc3cccc(OC)c3)CC[C@]3(C)[C@H](CC[C@@H]4[C@@]5(C)CC[C@H](OC(=O)CC(C)(C)C(=O)O)C(C)(C)[C@@H]5CC[C@]43C)[C@@H]12	> 10000 nM	19 nM	> 400	> 400	10%	10%	–	14 nM	> 10000 nM	–	–	–	–
